One may read the IC50 as the concentration at which inhibition is half-maximal. Usually inhibition stands for the share of the control response that was lost under treatment.

The values below come from ChEMBL document CHEMBL5537194, “Tight-Binding Small-Molecule Carboxylesterase 2 Inhibitors Reduce Intracellular Irinotecan Activation” (J Med Chem, 2024).

The subject of data set [1] is PANC-1. In words: Cytotoxicity against human PANC-1 cells assessed as cell viability incubated for 14 days by crystal violet-based clonogenic assay. As to conditions: PANC-1, 336 h.
For data set [2], the target named is T1, Cocaine esterase (Homo sapiens, UniProt O00748).
T1 sequence (O00748 whole entry): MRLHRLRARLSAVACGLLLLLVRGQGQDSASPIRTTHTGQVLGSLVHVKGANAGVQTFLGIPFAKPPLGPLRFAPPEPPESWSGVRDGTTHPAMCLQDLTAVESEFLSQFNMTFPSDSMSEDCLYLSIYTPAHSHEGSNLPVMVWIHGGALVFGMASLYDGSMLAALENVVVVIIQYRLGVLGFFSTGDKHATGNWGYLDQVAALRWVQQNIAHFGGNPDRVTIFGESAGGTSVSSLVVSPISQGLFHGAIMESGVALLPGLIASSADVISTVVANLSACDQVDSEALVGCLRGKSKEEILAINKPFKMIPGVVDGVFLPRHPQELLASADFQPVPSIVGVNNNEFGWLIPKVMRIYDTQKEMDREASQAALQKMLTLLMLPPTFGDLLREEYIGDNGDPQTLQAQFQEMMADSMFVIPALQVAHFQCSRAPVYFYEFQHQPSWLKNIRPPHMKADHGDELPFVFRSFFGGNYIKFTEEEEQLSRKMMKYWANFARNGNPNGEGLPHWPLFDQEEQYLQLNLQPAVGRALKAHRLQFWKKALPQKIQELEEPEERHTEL
In words: Inhibition of human recombinant CES2 activity assessed as fluorescence of the AP product using Benz-AP as substrate.

Data set [3] deals with T2, CES2 (cocaine esterase) (Homo sapiens, UniProt O00748).
T2 sequence (O00748 whole entry): T1 sequence (O00748 whole entry)
Briefly: Inhibition of human recombinant CES2 activity assessed as fluorescence of the AP product using Benz-AP as substrate by measuring residual activity at 40 uM relative to control. The following applies: recombinant CES2, probe Benz-AP.

Data set [4] has as its target T2, CES2 (cocaine esterase). In words: in vitro. The following applies: recombinant CES2, probe CPT-11 (conversion to SN-38).
The nature of data set [5]: Inhibition of human CES1 activity at 40 uM measured after 20 mins.

`CCc1c2c(nc3ccc(OC(=O)N4CCC(N5CCCCC5)CC4)cc13)-c1cc3c(c(=O)n1C2)COC(=O)[C@]3(O)CC` [IRINOTECAN]: the concentration for half-maximal inhibition (IC50) in data set [1] came to 11000 nM.

For `O=C(CSc1cn(CC(=O)N2CCCC2)c2ccccc12)Nc1ccc(F)cc1F`, the IC50 in data set [2] was below 10 nM. For the same compound, the activity at 40 µM in data set [3] stood at 0.9%. Also, in data set [4], the inhibition at 10 min, 12 µM amounted to 91%.

With `CCn1c(=O)c2sc(N3CCCC3)nc2n(CC(=O)Nc2cccc(Cl)c2C)c1=O`, the activity at 40 µM in data set [3] was 37%. Moreover, the inhibition at 10 min, 12 µM in data set [4] stood at 51%.

Consider `COc1cc2c(cc1OC)C(C)N(C(=O)c1cc3c(s1)-c1ccccc1S(=O)(=O)C3)CC2` (configuration not stated), for which the IC50 in data set [2] was below 10 nM. Besides, the activity at 40 µM in data set [3] was found to be 13%. The inhibition at 10 min, 12 µM in data set [4] is 31%.

In the case of `Cc1ccc(CN2Cc3cc4ccc(C)c(C)c4nc3OC2=O)o1`, the IC50 came out at 18 nM in data set [2] and 61 nM in data set [5]. Also, in data set [3], the activity at 40 µM is 0.2%.

The compound `CC(C)c1ccccc1OC(=O)NCCc1ccc2ccccc2c1` showed an IC50 in data set [5] of 23 nM.

In the case of `Cc1ccc(Nc2nc(C(=O)NCc3ccccc3)cc3occc23)cc1`, the IC50 in data set [2] is below 10 nM. The activity at 40 µM in data set [3] stood at 3%. Also, the inhibition at 10 min, 12 µM in data set [4] stood at 63%.

Consider `CC(C)CN1C(=O)CCc2cc(NC(=O)Cc3cccc(F)c3)ccc21`, for which the IC50 in data set [2] turned out to be 177 nM. Further, the activity at 40 µM in data set [3] is -0.17%. In data set [4], the inhibition at 10 min, 12 µM came out at 95%.

Regarding `CCOc1ccc2ncc(S(=O)(=O)c3ccc(OC)cc3)c(N3CCC4(CC3)OCCO4)c2c1`, in data set [2], the IC50 was determined as 66 nM. Further, the activity at 40 µM in data set [3] is 1.3%. Moreover, in data set [4], the inhibition at 10 min, 12 µM is 94%.
